# Assay results published in ChEMBL document CHEMBL1201862, “PubChem BioAssay data set” (2004).
# Activity calls are given as the source filed them.
# Legend:
# [1] = molecular target: Alkaline phosphatase, placental type (Homo sapiens, UniProt P05187); assay: human placental alkaline phosphatase inhibition – biochemical, luminescence, confirmation (AID 1512); format: functional
# [2] = molecular target: T1, Mannose-6-phosphate isomerase (Homo sapiens, UniProt P34949); assay: phosphomannose isomerase inhibition – biochemical, fluorescence intensity, confirmation (AID 1535)
# T1 sequence (P34949 whole entry): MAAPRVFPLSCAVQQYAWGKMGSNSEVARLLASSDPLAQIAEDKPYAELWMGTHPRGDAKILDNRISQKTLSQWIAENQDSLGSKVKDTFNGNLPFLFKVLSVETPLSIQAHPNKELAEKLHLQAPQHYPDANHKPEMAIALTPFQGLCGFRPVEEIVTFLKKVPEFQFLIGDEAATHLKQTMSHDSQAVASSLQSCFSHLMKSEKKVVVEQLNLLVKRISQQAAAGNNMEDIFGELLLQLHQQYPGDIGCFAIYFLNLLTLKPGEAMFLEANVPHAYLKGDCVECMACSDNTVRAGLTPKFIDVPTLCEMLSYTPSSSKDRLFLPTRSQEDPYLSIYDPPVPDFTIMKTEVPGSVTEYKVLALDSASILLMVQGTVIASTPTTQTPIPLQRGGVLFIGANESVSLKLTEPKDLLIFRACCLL
# [3] = molecular target: T1, Mannose-6-phosphate isomerase; assay: Confirmation of compounds inhibiting phosphomannose isomerase (PMI) via a fluorescence intensity assay using a high concentration of mannose 6-phosphate. [Related pubchem assays (depositor defined):AID1209, AID1220, AID1545, AID1553, AID1620]
# [4] = molecular target: T2, Kappa-type opioid receptor (Homo sapiens, UniProt P41145); format: functional
# T2 sequence (P41145 whole entry): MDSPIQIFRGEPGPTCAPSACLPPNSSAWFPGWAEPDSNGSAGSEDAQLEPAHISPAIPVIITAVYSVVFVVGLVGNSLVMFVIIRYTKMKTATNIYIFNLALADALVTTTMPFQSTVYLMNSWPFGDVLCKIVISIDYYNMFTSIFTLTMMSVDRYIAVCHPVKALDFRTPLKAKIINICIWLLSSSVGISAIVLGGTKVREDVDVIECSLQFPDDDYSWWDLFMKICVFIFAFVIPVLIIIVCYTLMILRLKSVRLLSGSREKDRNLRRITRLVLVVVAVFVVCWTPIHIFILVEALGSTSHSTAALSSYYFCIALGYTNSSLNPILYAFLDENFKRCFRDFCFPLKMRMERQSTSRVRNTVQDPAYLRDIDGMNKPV
# [5] = microbe, parasite or virus in culture; format: functional; details: Mycobacterium tuberculosis
# cells = format: functional
# Beta-galactosidase = Beta-galactosidase (Escherichia coli, UniProt Q8VNN2); format: functional
# Beta-galactosidase, sequence (Q8VNN2 whole entry): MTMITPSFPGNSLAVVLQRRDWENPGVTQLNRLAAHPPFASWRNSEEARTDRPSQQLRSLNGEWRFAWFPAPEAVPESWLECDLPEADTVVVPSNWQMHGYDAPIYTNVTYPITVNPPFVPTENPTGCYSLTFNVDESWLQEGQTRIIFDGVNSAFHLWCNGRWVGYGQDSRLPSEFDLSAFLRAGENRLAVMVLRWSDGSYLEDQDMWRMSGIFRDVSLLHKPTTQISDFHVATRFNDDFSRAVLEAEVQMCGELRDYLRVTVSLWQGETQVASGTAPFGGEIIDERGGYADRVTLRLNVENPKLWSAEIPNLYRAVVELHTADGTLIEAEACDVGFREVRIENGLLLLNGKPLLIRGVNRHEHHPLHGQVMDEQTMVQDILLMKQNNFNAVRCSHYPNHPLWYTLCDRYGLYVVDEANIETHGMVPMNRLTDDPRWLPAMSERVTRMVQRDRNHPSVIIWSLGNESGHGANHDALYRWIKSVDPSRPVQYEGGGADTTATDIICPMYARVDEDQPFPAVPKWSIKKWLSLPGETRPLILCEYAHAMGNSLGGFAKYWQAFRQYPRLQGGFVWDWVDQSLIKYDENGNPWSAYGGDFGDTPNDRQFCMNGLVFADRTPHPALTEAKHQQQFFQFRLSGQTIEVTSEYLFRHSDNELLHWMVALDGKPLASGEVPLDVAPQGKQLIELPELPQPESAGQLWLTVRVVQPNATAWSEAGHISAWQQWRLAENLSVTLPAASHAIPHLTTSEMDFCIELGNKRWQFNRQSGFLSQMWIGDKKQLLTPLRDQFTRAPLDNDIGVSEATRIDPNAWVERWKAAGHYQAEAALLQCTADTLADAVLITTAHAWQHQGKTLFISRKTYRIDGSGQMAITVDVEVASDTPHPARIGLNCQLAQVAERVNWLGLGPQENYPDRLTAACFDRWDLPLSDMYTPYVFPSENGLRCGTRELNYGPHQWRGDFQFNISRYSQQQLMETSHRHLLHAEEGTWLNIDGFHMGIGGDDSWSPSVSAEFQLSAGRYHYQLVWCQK
# [6] = molecular target: T2, Kappa-type opioid receptor; format: functional; remark: listed apart in the source
# [7] = THP-1 cell cytotoxicity, dose response, cytotoxicity control for non-replicating M. tuberculosis project (AID 489025); format: functional
# Caspase-3 = molecular target: T3, Caspase-3 (Homo sapiens, UniProt P42574); assay: activation of caspase-3 zymogen – biochemical, absorbance, dose response (AID 489014)
# T3 sequence (P42574 whole entry): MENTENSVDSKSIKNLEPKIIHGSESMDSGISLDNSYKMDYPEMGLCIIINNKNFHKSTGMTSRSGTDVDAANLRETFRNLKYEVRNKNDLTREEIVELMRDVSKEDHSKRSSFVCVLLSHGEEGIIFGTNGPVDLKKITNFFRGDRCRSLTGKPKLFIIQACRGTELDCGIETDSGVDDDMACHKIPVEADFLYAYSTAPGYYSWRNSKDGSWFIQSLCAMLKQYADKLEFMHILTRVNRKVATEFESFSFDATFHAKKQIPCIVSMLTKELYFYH
# [8] = Luminescence Cell-Based Dose Retest to Confirm Inhibitors of Cancer Stem Cells. [Related pubchem assays (depositor defined):AID2717, AID2721]; format: functional, Homo sapiens; details: Homo sapiens
# Caspase-7 = Caspase-7 (Homo sapiens, UniProt P55210); assay: activation of caspase-7 zymogen – biochemical, absorbance, counter-screen for procaspase-3 activator project, dose response (AID 489013)
# Caspase-7, sequence (P55210 24-198 limits assumed): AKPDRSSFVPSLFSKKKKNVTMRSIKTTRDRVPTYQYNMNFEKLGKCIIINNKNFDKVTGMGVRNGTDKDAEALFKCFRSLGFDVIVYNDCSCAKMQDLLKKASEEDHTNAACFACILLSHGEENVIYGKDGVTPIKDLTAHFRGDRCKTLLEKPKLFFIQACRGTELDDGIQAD
# Caspase-7, sequence (P55210 207-303 limits assumed): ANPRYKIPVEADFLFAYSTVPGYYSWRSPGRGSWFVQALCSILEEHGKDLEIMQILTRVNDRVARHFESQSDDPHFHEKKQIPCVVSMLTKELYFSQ
# Vero [9] = assay: cells; format: functional; details: Chlorocebus sabaeus
# [10] = NIH3T3 cell viability loss – ATP luminescence, mouse fibroblasts, counter-screen, dose response (AID 2010); format: functional, cell-based;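 note: cells exposed to compound for about 90 hours before reading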
# [11] = Trypanosoma cruzi growth suppression in host cells – NIH3T3 host cells, beta-gal luminescence, confirmation (AID 2044); format: functional, cell-based;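 note: intracellular parasites grown in NIH/3T3 mouse fibroblasts as host cells; luminescent beta-galactosidase reporter signal from transgenic T. cruzi replicating inside host cells; inhibitors lower the luminescence signal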
# [12] = molecular target: G-protein coupled receptor 55 (Homo sapiens, UniProt Q9Y2T6); assay: selective activators of receptor GPR55 – imaging, U2OS cells, beta-arrestin-GFP redistribution, primary screen (AID 1961); format: functional
# G-protein coupled receptor 55, sequence (Q9Y2T6 whole entry): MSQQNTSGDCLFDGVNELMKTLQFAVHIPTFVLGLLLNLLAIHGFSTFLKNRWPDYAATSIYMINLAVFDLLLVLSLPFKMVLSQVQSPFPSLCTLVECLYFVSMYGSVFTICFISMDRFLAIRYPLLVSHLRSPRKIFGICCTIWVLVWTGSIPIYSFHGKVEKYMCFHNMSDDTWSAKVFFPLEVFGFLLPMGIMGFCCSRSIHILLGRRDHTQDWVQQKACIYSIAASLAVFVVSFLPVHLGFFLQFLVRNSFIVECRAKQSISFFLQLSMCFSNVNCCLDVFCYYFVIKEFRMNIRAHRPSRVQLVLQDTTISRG
# Vero [13] = assay: cells; format: functional, cell-based; details: Chlorocebus sabaeus
# [14] = molecular target: Phosphoethanolamine/phosphocholine phosphatase (Homo sapiens, UniProt Q8TCT1); assay: SAR assay for compounds that inhibit PHOSPHO1. [Related pubchem assays (depositor defined):AID1545, AID1565, AID1574]
# Phosphoethanolamine/phosphocholine phosphatase, sequence (Q8TCT1 whole entry): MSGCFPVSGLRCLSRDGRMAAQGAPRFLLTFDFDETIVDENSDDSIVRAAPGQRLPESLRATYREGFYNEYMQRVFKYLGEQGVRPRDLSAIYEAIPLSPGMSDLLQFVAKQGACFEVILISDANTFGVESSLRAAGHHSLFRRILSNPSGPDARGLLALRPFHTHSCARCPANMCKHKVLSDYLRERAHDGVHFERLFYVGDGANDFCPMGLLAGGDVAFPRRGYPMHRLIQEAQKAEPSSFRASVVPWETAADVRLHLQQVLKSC
# Phosphomannomutase 2 = Phosphomannomutase 2 (Homo sapiens, UniProt O15305); assay: Counter screen SAR assay for PMM2 inhibitors via a fluorescence intensity assay. [Related pubchem assays (depositor defined):AID1545, AID1574]
# Phosphomannomutase 2, sequence (O15305 whole entry): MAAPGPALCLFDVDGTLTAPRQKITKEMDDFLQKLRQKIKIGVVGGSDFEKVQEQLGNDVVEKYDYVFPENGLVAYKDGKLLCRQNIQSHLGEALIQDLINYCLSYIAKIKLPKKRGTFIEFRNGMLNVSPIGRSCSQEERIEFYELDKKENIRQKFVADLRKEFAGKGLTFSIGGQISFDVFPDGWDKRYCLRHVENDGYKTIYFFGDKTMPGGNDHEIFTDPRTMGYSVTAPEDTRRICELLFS
# 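Throughout, for AC50: cells exposed to compound for roughly 70 hours or longer before luminescence read.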
# Alkaline phosphatase, placental type, sequence (P05187 whole entry): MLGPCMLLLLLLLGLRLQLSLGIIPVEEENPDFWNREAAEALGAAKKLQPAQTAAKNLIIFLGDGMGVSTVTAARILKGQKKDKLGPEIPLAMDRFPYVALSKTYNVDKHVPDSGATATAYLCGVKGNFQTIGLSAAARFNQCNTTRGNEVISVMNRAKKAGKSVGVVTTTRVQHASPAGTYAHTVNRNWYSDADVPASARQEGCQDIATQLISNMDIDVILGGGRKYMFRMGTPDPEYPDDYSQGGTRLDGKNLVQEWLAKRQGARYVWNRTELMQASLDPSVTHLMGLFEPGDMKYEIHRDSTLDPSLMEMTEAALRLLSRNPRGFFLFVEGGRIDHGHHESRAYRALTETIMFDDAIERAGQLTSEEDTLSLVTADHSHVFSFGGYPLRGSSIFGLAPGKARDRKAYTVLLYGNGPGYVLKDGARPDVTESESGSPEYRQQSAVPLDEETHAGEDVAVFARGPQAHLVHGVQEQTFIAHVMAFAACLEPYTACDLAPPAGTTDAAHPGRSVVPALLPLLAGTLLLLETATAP
smiles,measurement,setting,value
C=CCN1C(=O)/C(=N\Nc2ccccc2O)c2ccccc21,IC50,[1],> 100 µM (inactive)
same,IC50,[2],> 100 µM (inactive)
same,IC50,[3],> 100 µM (inactive)
CC(C)(C)NC(=O)C(=O)NNC(=O)c1ccc(C(C)(C)C)cc1,IC50,[4],> 31.5 µM (inactive)
same,CC50,[5],> 40 µM (active)
same,IC50,cells,19.4 µM (active)
same,EC50,Beta-galactosidase,> 31.5 µM (inactive)
same,IC50,[6],> 32 µM
same,CC50,[7],> 40 µM (active)
COc1ccc(-c2sc3ccc(OC)cc3c2C#Cc2ccccn2)cc1,EC50,Caspase-3,> 85.2 µM (inactive)
same,AC50,[8],3 µM (active)
same,EC50,Caspase-7,> 85.2 µM (inactive)
Cc1ccc(C(=O)C(C(=O)/C=C/c2ccccc2)=C2SCCCS2)cc1,CC50,Vero [9],> 25 µM (active)
same,AC50,[8],1.24 µM (active)
same,EC50,[10],10.3 µM (active)
same,EC50,[11],990 nM (active)
same,EC50,[12],3.63 µM (active)
same,IC50,Vero [13],7.69 µM (active)
O=c1c2ccc(F)cc2sn1-c1cccc(Cl)c1Cl,IC50,[2],> 50 µM (inactive)
same,IC50,[14],359 nM (active)
same,IC50,Phosphomannomutase 2,> 100 µM (inactive)
